We go through one substance from patent US9387221B2, “SDF-1 binding nucleic acids and the use thereof in cancer treatment” (NOXXON Pharma AG, priority 2010, dated 2016).

Entries after “also recorded” stand apart in the source; their conditions may differ. {PEG40k} = 40 kDa polyethylene glycol

The subject of data set [1] is SDF-1 induced sprouting, rings from rat aorta. Briefly: Aortic ring sprouting assay. To be noted: 10 nM SDF-1 + 1 μM Spiegelmer, 6 days; listed as 193-G2-012-5′-PEG. In kind it is cell-based. The procedure:
After 6 to 7 days, sprouting (i.e. outgrowth of endothelial cells) was analysed by taking pictures and determining a sprouting index.
Aortae from male rats were obtained from Bagheri Life sciences (Berlin, Germany). The aortae were prepared freshly and transported on ice in MCDB 131-Medium (Invitrogen, Karlsruhe, Germany) containing 50 units/ml penicillin, 50 μg/ml streptomycin (both Invitrogen, Karlsruhe, Germany) and 2.5 μg/ml fungizone (Cambrex, USA).
For an experiment a single aorta was transferred to a cell culture dish together with the medium and residual connective tissue was removed. Then the aorta was cut with a scalpel into rings of about 1 to 2 mm length. The rings were washed intensively (at least five times) in Medium199 (Invitrogen, Karlsruhe, Germany) and then placed in wells of a 24 well plate, containing 450 μl of collagen solution per well. […]
Sprouting was documented by taking pictures with a digital camera. […] Pictures were analysed with the Scion Image image processing software. […] A plot histogram along this line was generated by the software, histograms were printed and peaks (representing sprouts crossing the line) were counted. […] 4 to 5 rings per condition were evaluated. […]

In data set [2] the test system is SDF-1 dose-dependent adhesion of Jurkat cells to fibronectin. The data set can be described thus: Adhesion of Jurkat cells to fibronectin. To be noted: SDF-1 plus increasing concentrations of Spiegelmer. It counts as cell-based, human. The procedure:
The T cell leukemia Jurkat (ACC 282) were purchased from the DSMZ were maintained in RPMI medium 1640 GlutaMAX (Invitrogen) supplemented with 10% FBS (Biochrom) and penicillin-streptomycin. For the adhesion experiments 96-well culture plates were incubated with 10 μg/mL human fibronectin (R&D systems) in PBS for 2 hours at 37° C. […] The wells were then washed with RPMI medium. Jurkat cells from logarithmic growth phase were washed with RPMI medium (+0.1% BSA) and incubated with various concentrations of human SDF-1 (R&D systems) and NOX-A12 for 15 minutes at 37° C. NOX-A12 and SDF-1 were preincubated for 30 minutes. lx 105 stimulated Jurkat cells were seeded to the Fibronectin-coated 96-well plates and incubated for 30 minutes. The plates were then washed five times with RPMI medium. Attached cells were quantified by using Cell Titer Glo Reagent (Promega). Therefor, 50 μL RPMI medium was added to each well, followed by 50 μL of Cell Titer Glo Reagent. The plates were mixed for two minutes, followed by incubation at room temperature for 10 minutes. Cell number was quantified by relative luminescence signal.

As for “5′-40 kDa-PEG-GCGUGGUGUGAUCUAGAUGUAUUGGCUGAUCCUAGUCAGGUACGC (5' {PEG40k}, sugars by position and backbone not given here) [NOX-A12]”, the “blockage of SDF-1 induced sprouting (sprouting index)” value in data set [1] is given as “significantly different from that for SDF-1; also recorded: could be blocked”. The “reversal of SDF-1 effect on adhesion of Jurkat cells to fibronectin” value in data set [2] is on record as “reverse this effect”.
